System: early-stage triple negative breast cancer
Assay: Phase 2 randomized open label study of veliparib and carboplatin with standard neoadjuvant chemotherapy; pathologic complete response
Type: in vivo, human
Source text: Pathological Complete Response (pCR) is the absence of any residual invasive cancer on hematoxylin and eosin evaluation of the resected breast specimen and any resected lymph node tissue following completion of neoadjuvant systemic therapy.
This example is a Phase 2, interventional, randomized, open label study evaluating the safety and efficacy of veliparib and carboplatin administered concurrently with standard chemotherapy in subjects with early-stage triple negative breast cancer.
Patients received 50 mg po bid during the 12 weekly treatment cycles post-randomization and carboplatin: AUC 6 IV every three weeks for […] during the 12 weekly treatment cycles post-randomization with standard chemotherapy or alternatively standard chemotherapy alone. Standard chemotherapy was paclitaxel: 80 mg/m^2 IV during the 12 weekly treatment cycles post randomization; doxorubicin: 60 mg/m^2 IV after completion of the 12 weekly treatment cycles and prior to surgery for weeks 13-16; cyclophosphamide: 600 mg/m^2 IV after completion of the 12 weekly treatment cycles and prior to surgery for weeks 13-16.
Determine whether adding veliparib and carboplatin to standard neoadjuvant medications increases the probability of pathologic complete response (pCR) over standard neoadjuvant chemotherapy for triple negative breast cancer. […]

With C[C@]1(c2nc3c(C(N)=O)cccc3[nH]2)CCCN1 [Veliparib arm, 2-[(2R)-2-methylpyrrolidin-2-yl]-1H-benzimidazole-4-carboxamide] the pCR % (patients with triple negative breast cancer, neoadjuvant therapy followed by surgery, veliparib arm: veliparib 50 mg po bid + carboplatin AUC 6 IV during the 12 weekly cycles, added to standard chemotherapy (paclitaxel, then doxorubicin/cyclophosphamide), control arm: standard chemotherapy alone) was 56% (n = 39) and the “effect on number of women achieving pCR status” value (veliparib and carboplatin added to standard of care, neoadjuvant setting, early triple negative breast cancer) was “increases the number of women that achieve pCR status”.
